Like-named read-outs stand apart in the source and are kept apart here.
Key:
Type in all cases: cell-based
SERT S277C/X5C = molecular target: T1, SERT S277C/X5C (Rattus norvegicus, UniProt P31652, C109A/C15A/C21A/C357I/C622A/S277C); test: MTS reagent inhibition of ASP+ binding in digitonin-permeabilized cells (cytoplasmic pathway cysteine accessibility); settings: S277C/X5C, 25 μg/mL digitonin
T1 construct: expressed in transfected cells
Description: After 3 × rapid washing with KRH buffer, APP^+ or ASP^+ accumulation was measured as described under “Materials and Methods”. […] These representative images were parallelly acquired from one experiment. […] After 3 × washing, ASP^+ binding to the cell membrane was measured as described under “Materials and Methods”. […] (D) The effects of MTSET on ASP^+ binding of S277C/X5C and X5C. […] After 3 × rapid washing, ASP^+ binding was measured as described under “Materials and Methods”.
After washing to remove excess MTSEA and ligands, ASP^+ binding was measured as described under “Materials and Methods”. […] The IC50 values of MTSEA inhibition of ASP^+ binding were converted to rate constants.
The cells stably expressing Y107C/C109A were treated at 22 °C for 15 min with indicated concentrations of MTSET in the absence or presence of 10 μM vilazodone. After washing to remove excess MTSET and vilazodone, APP^+ uptake was measured as described under “Materials and Methods”. […] The IC50 values of MTSET inhibition were used to calculate rate constants as described under “Materials and Method”. Error bars represent SEM from three experiments. […] After washing to remove excess MTSEA and vilazodone, ASP^+ binding was measured as described under “Materials and Methods”. […] The IC50 values of MTSEA inhibition of ASP^+ binding were converted to rate constants. […]
For cytoplasmic pathway accessibility, measurements were performed with the cells stably expressing S277C/X5C. […] The cells, then, were washed free of unreacted MTSEA and ligands, ASP^+ binding was measured by adding 500 μL KRH buffer containing 10 μM ASP^+ and incubating at 22 °C for 5 min. Excess ASP^+ was removed by 3 × rapid washing with KRH buffer and ASP^+ fluorescence retained in the cell membrane was measured by confocal imaging analysis in the permeabilized cells. […] The MTSEA IC50 value was determined and used to calculate the rate constant for S277C/X5C modification.

SERT S404C/C109A = molecular target: T2, SERT S404C/C109A (Rattus norvegicus, UniProt P31652, C109A/S404C); test: MTSET inhibition of APP+ uptake in live cells (extracellular pathway cysteine accessibility); settings: for IC50: S404C/C109A
T2 construct: expressed in transfected cells
Description: (§1) Figure 3 Reactivity of the extracellular cysteine mutants with MTSET. (A) MTSET concentration-dependent inhibition of APP^+ uptake. The cells stably expressing C109A, Y107C/C109C, or S404C/C109A were incubated for 15 min with indicated concentrations of MTSET. The MTSET concentration giving half-maximal inhibition of APP^+ accumulation in the cells was used to calculate inactivation rate constants as plotted in (B). […] Representative images of APP^+ uptake by C109A, Y107C/C109A, or S404C/C109A under various MTSET concentrations were shown in Supplemental Figure S1. […] (B) Rate constants of MTSET inhibition of APP^+ uptake. At the half-maximal concentration, the half-time is the assay time (15 min) and the first-order rate constant is 7.7 × 10^−4 s^−1. This rate constant was divided by the half maximal MTSET concentration from (A) to obtain the pseudo first-order modification rate constant. Error bars represent SEM of three experiments.
(§2) The cells stably expressing Y107C/C109A or S404C/C109A were preincubated with indicated ligands and MTSET at a concentration of 0.01 mM for Y107C/C109A or 0.002 mM for S404C/C109A at 22 °C for 15 min, respectively. At the end of this incubation, cells were washed free of MTSET and ligands into KRH buffer containing NaCl and APP^+. APP^+ uptake was measured as described under “Materials and Methods”. Error bars represent SEM from three experiments. Asterisks and hashtags indicate statistically significant changes (p < 0.05) in the accumulated APP^+ fluorescence compared with the corresponding control (MTSET alone).
Accessibility of the cysteine residues in the extracellular pathway was measured by reactivity of Y107C/C109A and S404C/C109A mutants with MTSET. The cells stably expressing Y107C/C109A or S404C/C109A were incubated with MTSET over a range of concentrations in HEPES buffer containing indicated ligands or ions at 22 °C for 15 min. After excess MTSET and ligands were removed by rapid 3 × washing with the same buffer, the cells were then incubated with APP^+ at a final concentration of 2 μM in KRH buffer at 22 °C for another 5 min. The extent of APP^+ accumulated in the cells was determined by confocal imaging analysis in the live cells. To measure the effects of antidepressants, substrate 5-HT, or other ligands such as 5-HTP or tryptophan, where added, was present at 10 μM. To measure the effects of ions, 150 mM […] (NMDG) gluconate, and NMDG chloride, sodium isethionate, or NaCl was used as indicated. These measurements of reactivity depend on the ability of MTSET to inactivate APP^+ transport activity by an allosteric mechanism. The MTSET concentration causing half-maximal inactivation was determined and used to calculate the rate constant for cysteine modification, as described previously.

SERT C109A = molecular target: T3, SERT C109A (Rattus norvegicus, UniProt P31652, C109A); test: as above
T3 construct: expressed in transfected cells
Description: Figure 3 Reactivity of the extracellular cysteine mutants with MTSET. (A) MTSET concentration-dependent inhibition of APP^+ uptake. The cells stably expressing C109A, Y107C/C109C, or S404C/C109A were incubated for 15 min with indicated concentrations of MTSET. The MTSET concentration giving half-maximal inhibition of APP^+ accumulation in the cells was used to calculate inactivation rate constants as plotted in (B). In this experiment, half-maximal MTSET concentrations were […] for C109A, 0.011 ± 0.006 mM for Y107C/C109A, and 0.0025 ± 0.0008 mM for S404C/C109A, respectively. Representative images of APP^+ uptake by C109A, Y107C/C109A, or S404C/C109A under various MTSET concentrations were shown in Supplemental Figure S1. The experiment was repeated twice with similar results. (B) Rate constants of MTSET inhibition of APP^+ uptake. At the half-maximal concentration, the half-time is the assay time (15 min) and the first-order rate constant is 7.7 × 10^−4 s^−1. […]
Accessibility of the cysteine residues in the extracellular pathway was measured by reactivity of Y107C/C109A and S404C/C109A mutants with MTSET. […] The extent of APP^+ accumulated in the cells was determined by confocal imaging analysis in the live cells. […] The MTSET concentration causing half-maximal inactivation was determined and used to calculate the rate constant for cysteine modification, as described previously.

SERT Y107C/C109A = molecular target: T4, SERT Y107C/C109A (Rattus norvegicus, UniProt P31652, C109A/Y107C); test: as above; settings: Y107C/C109A
T4 construct: expressed in transfected cells
Description: as §1
(A) MTSET concentration-dependent inhibition of APP^+ uptake. […] After washing to remove excess MTSET and ligands, APP^+ uptake was measured as described under “Materials and Methods”. […] (B) Rate constants of MTSET inhibition of APP^+ uptake. The IC50 values of MTSET inhibition were used to calculate rate constants as described under “Materials and Methods”. Error bars represent SEM from three experiments.
as §2
The cells stably expressing Y107C/C109A were treated at 22 °C for 15 min with indicated concentrations of MTSET in the absence or presence of 10 μM vilazodone. After washing to remove excess MTSET and vilazodone, APP^+ uptake was measured as described under “Materials and Methods”. […] The IC50 values of MTSET inhibition were used to calculate rate constants as described under “Materials and Method”. Error bars represent SEM from three experiments. […] After washing to remove excess MTSEA and vilazodone, ASP^+ binding was measured as described under “Materials and Methods”. […] The IC50 values of MTSEA inhibition of ASP^+ binding were converted to rate constants.

[1] = 15 min incubation with MTSET, read-out: half-maximal MTSET concentration for inhibition of APP+ accumulation
[2] = constant concentration used in simplified assay, read-out: MTSET IC50 value (APP+ uptake inhibition)

SMILES: C[N+](C)(C)CCSS(C)(=O)=O.[Br-] [MTSET, 2-(Trimethylammonium) ethyl methanethiosulfonate bromide]
- accessibility of Cys277 to MTSET (SERT S277C/X5C): not accessible
- IC50 (SERT S404C/C109A; [1]): 2.5 ± 0.8 µM
- IC50 (SERT S404C/C109A; [2]): 2 µM
- reactivity with MTSET of S404C/C109A relative to Y107C/C109A (faster by) (SERT S404C/C109A; pseudo first-order rate constants): 4-5 fold
- IC50 (SERT C109A; C109A, 15 min incubation with MTSET, read-out: half-maximal MTSET concentration for inhibition of APP+ accumulation): > 1000 µM
- effect on transport activity (APP+ uptake) (SERT C109A; background construct C109A, MTSET 0.1 μM to 1 mM): little effect
- IC50 (SERT Y107C/C109A; [1]): 11 ± 6 µM
- IC50 (SERT Y107C/C109A; [2]): 10 µM
